Where “and” joins values, the source holds several entries; their conditions need not be identical. Identical values can stand only once. Like-named read-outs stand apart in the source and are kept apart here.
Key:
[1] = tested on: firefly luciferase expressing T. gondii strains (GT1, RH, ME49, CTG, MAS, RUB, FOU, VAND); assay: Luciferase-based growth assay, FLuc parasites of diverse genotypes; format: cell-based; conditions: Toxoplasma gondii
Experimental: In vitro cultures of HFF cells containing mature vacuoles were scraped, passaged through 23 g blunt end needles, and filtered using 3 micron filters. Purified parasites were resuspended in 350 μL of cytomix plus[49] and combined in a BTX 4 mm gap cuvette with 30 μL of PCR amplified templates corresponding to mutations of interest and 10 μg of pSAG1:Cas9-GFP U6:sgTgPheRS^[mut] (in 20 μL, 400 μL total volume, see Supplementary Data 1 for sgRNA sequences) prior to electroporation using a BTX ETM 830 electroporator. Amplified templates for TgPheRS mutations were generated from gBlocks (Integrated DNA Technologies, Coralville, IA, USA) that contain a BclI restriction site that replaces the PAM sequence to protect the repair template from being cut by Cas9. At 16 h post-transfection, transgenic parasites expressing pSAG1:Cas9-GFP were sorted on a Sony SH800 FACS sorter directly into 96-well plates. Single clones containing TgPheRS^[mut] were identified by amplifying a ~500 bp PCR fragment around introduced mutation followed by digestion using BclI (New England Biolabs) BclI sensitive clones were expanded and the locus was Sanger sequenced to verify incorporation of each independent mutation. To generate firefly luciferase (FLuc) expressing strains, freshly harvested parasites were combined with 20 μg of pTUB-FLUC DHFR flox plasmid and 10 μg of pSAG1:Cas9-GFP U6:sgUPRT[50] (in 50 μL cytomix plus) and transformed by electroporation as described above. Parasites were allowed to recover overnight followed by sequential selection with pyrimethamine (1.0 μM) and 5-flurodeoxyuracil (FUDR, 10 μM), as described previously. Stable clones were isolated by limiting dilution and a clone from each genetic background selected based on high luciferase activity (Table 1).
All assays were carried out in a 96-well plate format containing confluent HFF monolayers to support parasite growth. To avoid edge effects, only the inner 60 wells of each plate were used. All compounds described were provided by the Broad Institute as 10 mM stocks in 100% DMSO and stored at −80 °C prior to use. Pyrimethamine (Sigma-Aldrich) was prepared as 5 mM stock in 100% DMSO and stored at −20 °C prior to use.

[2] = tested on: T. gondii RHΔΔ TgPheRS[M484I]; assay: Tachyzoite lytic assay, M484I mutant; format: cell-based; conditions: Toxoplasma gondii
Experimental: In vitro cultures of HFF cells containing mature vacuoles were scraped, passaged through 23 g blunt end needles, and filtered using 3 micron filters. Purified parasites were resuspended in 350 μL of cytomix plus[49] and combined in a BTX 4 mm gap cuvette with 30 μL of PCR amplified templates corresponding to mutations of interest and 10 μg of pSAG1:Cas9-GFP U6:sgTgPheRS^[mut] (in 20 μL, 400 μL total volume, see Supplementary Data 1 for sgRNA sequences) prior to electroporation using a BTX ETM 830 electroporator. Amplified templates for TgPheRS mutations were generated from gBlocks (Integrated DNA Technologies, Coralville, IA, USA) that contain a BclI restriction site that replaces the PAM sequence to protect the repair template from being cut by Cas9. […]
Parasite growth on HFF monolayers was monitored using a 96-well plate-based lytic assay modified from a previously described protocol. […] Plates were rinsed with water, air dried, and absorption quantified on the Cytation 3 multi-mode imager at 570 nm wavelength. % parasite growth was calculated as 100−[(OD value for infected cultures at each concentration of compound/average OD value for no compound and no parasite infection) × 100]. EC50 values were calculated based on the mean of three biological replicates with each replicate containing two technical replicates.

TgPheRS[L497I] = molecular target: T1, TgPheRS[L497I] (Toxoplasma gondii, UniProt A0A125YPN6, L497I); assay: Enzyme assay, TgPheRS L497I; format: biochemical; conditions: for enzyme assay readout (raw): L497I
T1 sequence (A0A125YPN6 1-525 L497I): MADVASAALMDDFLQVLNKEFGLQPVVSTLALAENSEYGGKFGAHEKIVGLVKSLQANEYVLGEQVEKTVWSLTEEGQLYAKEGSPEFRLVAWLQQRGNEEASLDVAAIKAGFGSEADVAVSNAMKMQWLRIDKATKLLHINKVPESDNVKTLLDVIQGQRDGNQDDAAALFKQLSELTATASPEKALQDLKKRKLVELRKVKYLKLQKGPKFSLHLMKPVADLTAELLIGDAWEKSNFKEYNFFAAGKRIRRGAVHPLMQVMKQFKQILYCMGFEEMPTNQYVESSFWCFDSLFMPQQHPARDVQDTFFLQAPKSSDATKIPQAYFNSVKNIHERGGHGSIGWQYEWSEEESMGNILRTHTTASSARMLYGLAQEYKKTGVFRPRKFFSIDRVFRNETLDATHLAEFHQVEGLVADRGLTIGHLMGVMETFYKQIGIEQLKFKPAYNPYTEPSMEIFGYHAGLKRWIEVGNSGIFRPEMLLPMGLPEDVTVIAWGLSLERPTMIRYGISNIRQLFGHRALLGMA
T1 sequence (S8EZ50 1-675 partner): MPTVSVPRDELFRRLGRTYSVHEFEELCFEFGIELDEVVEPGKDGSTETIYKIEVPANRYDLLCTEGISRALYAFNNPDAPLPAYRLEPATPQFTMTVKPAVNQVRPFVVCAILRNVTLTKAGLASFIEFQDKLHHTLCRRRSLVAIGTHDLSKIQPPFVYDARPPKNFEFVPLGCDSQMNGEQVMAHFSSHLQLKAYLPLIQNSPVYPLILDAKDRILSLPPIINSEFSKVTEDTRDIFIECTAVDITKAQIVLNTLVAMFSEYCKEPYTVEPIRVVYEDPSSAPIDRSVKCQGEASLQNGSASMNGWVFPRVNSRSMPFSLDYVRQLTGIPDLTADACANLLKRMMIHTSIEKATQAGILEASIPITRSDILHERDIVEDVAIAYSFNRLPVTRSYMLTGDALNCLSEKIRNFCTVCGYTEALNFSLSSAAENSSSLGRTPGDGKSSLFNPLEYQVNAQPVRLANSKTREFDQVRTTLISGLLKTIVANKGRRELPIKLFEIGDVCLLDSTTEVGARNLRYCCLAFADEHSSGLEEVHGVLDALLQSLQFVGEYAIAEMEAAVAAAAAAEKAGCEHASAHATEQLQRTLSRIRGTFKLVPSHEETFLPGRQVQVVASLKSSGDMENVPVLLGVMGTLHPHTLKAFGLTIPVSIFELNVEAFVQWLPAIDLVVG

COc1ccc(NC(=O)N2CCCCN3[C@H](CN(C)C)[C@H](c4ccc(C#Cc5ccccc5)cc4)[C@@H]3C2)cc1 [BRD7929]
EC50 ([1]; GT1, all eight lineages, read-out: EC50 against tachyzoite growth, all lineages): < 50 nM
EC50 ([1]; GT1, strain CTG, type III, N. America, read-out: EC50): 31.5 nM
EC50 ([1]; GT1, strain FOU, type VI, Europe, read-out: EC50): 45.1 nM
EC50 ([1]; GT1, strain GT1, type I, N. America, read-out: EC50): 16.1 nM
EC50 ([1]; GT1, strain MAS, type IV, Europe, read-out: EC50): 42 nM
EC50 ([1]; GT1, strain ME49, type II, Europe, read-out: EC50): 49.4 nM
EC50 ([1]; GT1, strain RH, type I, Europe, read-out: EC50): 24.1 nM
EC50 ([1]; GT1, strain RUB, type V, S. America, read-out: EC50): 26.9 nM
EC50 ([1]; GT1, strain VAND, type X, S. America, read-out: EC50): 27.9 nM
EC50 ([2]; 72 h, read-out: EC50, M484I): 93 nM
EC50 ([2]; read-out: EC50 (growth restriction)): 65 nM
enzyme assay readout (raw) (TgPheRS[L497I]; 0.000005 μM): 0.3299 and 0.3217 and 0.3007
enzyme assay readout (raw) (TgPheRS[L497I]; 0.000050 μM): 0.3157 and 0.3171 and 0.3115
enzyme assay readout (raw) (TgPheRS[L497I]; 0.000500 μM): 0.3154 and 0.3074 and 0.3183
enzyme assay readout (raw) (TgPheRS[L497I]; 0.005000 μM): 0.2831 and 0.3060 and 0.3128
enzyme assay readout (raw) (TgPheRS[L497I]; 0.050000 μM): 0.3012 and 0.2839 and 0.2985
enzyme assay readout (raw) (TgPheRS[L497I]; 0.500000 μM): 0.2641 and 0.2615 and 0.2741
enzyme assay readout (raw) (TgPheRS[L497I]; 5.000000 μM): 0.2401 and 0.2141 and 0.2271
enzyme assay readout (raw) (TgPheRS[L497I]; 50.000000 μM): 0.1719 and 0.1728 and 0.1711
IC50 (TgPheRS[L497I]; Table S4, L497I, read-out: IC50 (enzyme inhibition)): 1320 nM

Source: PMC8786932, “Bicyclic azetidines target acute and chronic stages of Toxoplasma gondii by inhibiting parasite phenylalanyl t-RNA synthetase” (Nature Communications, 2022)
